The record followed here is US20020115640A1, “Farnesyltransferase inhibitors” (priority 2000, published 2002).

By inhibition is commonly meant the change of the read-out against control, counted positive when it falls. A lower inhibition goes with little suppression.

T1 sequence (Q02293 whole entry, one chain of several): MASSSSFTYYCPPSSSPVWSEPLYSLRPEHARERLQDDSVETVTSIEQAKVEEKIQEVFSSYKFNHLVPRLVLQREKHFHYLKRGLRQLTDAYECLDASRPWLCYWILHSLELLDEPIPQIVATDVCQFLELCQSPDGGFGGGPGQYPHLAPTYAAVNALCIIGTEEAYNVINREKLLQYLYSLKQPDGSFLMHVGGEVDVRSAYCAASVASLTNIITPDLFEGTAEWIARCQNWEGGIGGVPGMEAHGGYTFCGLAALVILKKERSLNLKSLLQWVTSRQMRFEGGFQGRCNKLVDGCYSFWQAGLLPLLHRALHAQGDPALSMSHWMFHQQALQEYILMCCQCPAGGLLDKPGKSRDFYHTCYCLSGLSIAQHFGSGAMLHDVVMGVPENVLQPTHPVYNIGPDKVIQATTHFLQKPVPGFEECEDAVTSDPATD

The first experiment concerns the target T1, farnesyltransferase (Rattus norvegicus, UniProt Q02293+Q04631).
T1 construct: The enzyme can be purified according to Cell, 62: 81-88 (1990), utilizing steps one, two, and three; from tissue; host or cells: rat brain
Description: Inhibition of farnesyltransferase (3H-farnesyldiphosphate / H-Ras filter assay). The settings on record: test compound at 10^−7 M; 3H-farnesyldiphosphate 0.6 μM, H-Ras 5.0 μM, 37° C., 30 minutes. It counts as biochemical. From the text:
The ability of the compounds of the present invention to inhibit farnesyltransferase can be measured according to the method described in J. Biol. Chem., 266: 14603 (1991) or J. Biol. Chem., 270:660-664 (1995). Procedures for determination of the inhibition of farnesylation of the oncogene protein Ras are described in J. Biol. Chem., 266:15575-15578 (1991) and U.S. Pat. No. 5,245,061. Inhibition of rat brain farnesyltransferase can also be measured in vitro using an Amersham Life Science commercial scintillation proximity assay kit and substituting a biotin-K Ras B fragment (0.1 μM final concentration) for the biotin-lamin substrate provided by Amersham. The enzyme can be purified according to Cell, 62: 81-88 (1990), utilizing steps one, two, and three. […] The percent inhibition of the farnesylation caused by the compounds of the present invention (at 10^−6 M) compared to an uninhibited control sample can be evaluated in the same Amersham test system.
The mixture was brought to 37° C., treated with enzyme, incubated for 30 minutes, treated with 1 M HCl/ethanol (1 mL) to stop the reaction, stirred for 15 minutes at room temperature, diluted with ethanol (2 mL), filtered through a 2.5 cm glass microfiber filter (Whatman) with ethanol rinses (4×2 mL). The glass transferred to a scintillation vial and treated with scintillation fluid (5 mL). The radioisotope retained on the glass fiber filter was counted and reflected the activity of the enzyme.
In the case of “4-(((5-chloro-4′-(trifluoromethyl)(1,1′-biphenyl)-2-yl)methoxy)(1-methyl-1H-imidazol-5-yl)methyl)benzonitrile [Example 26]”, the “% Inhibition at 10^−7 M” value is listed as 98%.
`Cn1cncc1C(OCc1ccc(Cl)cc1I)c1ccc(C#N)cc1` (stereo not shown) [Example 1, 4-(((4-chloro-2-iodobenzyl)oxy)(1-methyl-1H-imidazol-5-yl)methyl)benzonitrile]: the inhibition at 0.1 µM is 73%.
The molecule `Cn1cncc1C(OCc1ccc(Cl)cc1-c1ccccc1Cl)c1ccc(C#N)cc1` (stereo not shown) [Example 3, 4-(((2′,5-dichloro(1,1′-biphenyl)-2-yl)methoxy)(1-methyl-1H-imidazol-5-yl)methyl)benzonitrile] returned an inhibition at 0.1 µM of 90%.
On to `Cc1ccccc1-c1cc(Cl)ccc1COC(c1ccc(C#N)cc1)c1cncn1C` (stereo not shown) [Example 4, 4-(((5-chloro-2′-methyl(1,1′-biphenyl)-2-yl)methoxy)(1-methyl-1H-imidazol-5-yl)methyl)benzonitrile], for which the inhibition at 0.1 µM turned out to be 89%.
The molecule `COc1ccccc1-c1cc(Cl)ccc1COC(c1ccc(C#N)cc1)c1cncn1C` (stereo not shown) [Example 5, 4-(((5-chloro-2′-methoxy(1,1′-biphenyl)-2-yl)methoxy)(1-methyl-1H-imidazol-5-yl)methyl)benzonitrile] gave an inhibition at 0.1 µM of 79%.
The molecule `Cn1cncc1C(OCc1ccc(Cl)cc1-c1cccc(Cl)c1)c1ccc(C#N)cc1` (stereo not shown) [Example 6, 4-(((3′,5-dichloro(1,1′-biphenyl)-2-yl)methoxy)(1-methyl-1H-imidazol-5-yl)methyl)benzonitrile] showed an inhibition at 0.1 µM above 91%.
On the same count and under the same terms, as for `Cc1cccc(-c2cc(Cl)ccc2COC(c2ccc(C#N)cc2)c2cncn2C)c1` (stereo not shown) [Example 7, 4-(((5-chloro-3′-methyl(1,1′-biphenyl)-2-yl)methoxy)(1-methyl-1H-imidazol-5-yl)methyl)benzonitrile], the figure is above 85%; as for `Cn1cncc1C(OCc1ccc(Cl)cc1-c1cccc(C(F)(F)F)c1)c1ccc(C#N)cc1` (stereo not shown) [Example 8, 4-(((5-chloro-3′-(trifluoromethyl)(1,1′-biphenyl)-2-yl)methoxy)(1-methyl-1H-imidazol-5-yl)methyl)benzonitrile], 96%; as for `COc1cccc(-c2cc(Cl)ccc2COC(c2ccc(C#N)cc2)c2cncn2C)c1` (stereo not shown) [Example 9, 4-(((5-chloro-3′-methoxy(1,1′-biphenyl)-2-yl)methoxy)(1-methyl-1H-imidazol-5-yl)methyl)benzonitrile], above 91%.
Same read-out and setting: as for `Cn1cncc1C(OCc1ccc(Cl)cc1-c1cccc(F)c1)c1ccc(C#N)cc1` (stereo not shown) [Example 10, 4-(((5-chloro-3′-fluoro(1,1′-biphenyl)-2-yl)methoxy)(1-methyl-1H-imidazol-5-yl)methyl)benzonitrile], the figure is 94%.
On the same count and under the same terms, as for `Cn1cncc1C(OCc1ccc(Cl)cc1-c1ccc(Cl)cc1)c1ccc(C#N)cc1` (stereo not shown) [Example 11, 4-(((4′,5-dichloro(1,1′-biphenyl)-2-yl)methoxy)(1-methyl-1H-imidazol-5-yl)methyl)benzonitrile], the figure is 92%.
As to `Cn1cncc1C(OCc1ccc(Cl)cc1-c1cccc2ccccc12)c1ccc(C#N)cc1` (stereo not shown) [Example 12, 4-(((4-chloro-2-(1-naphthyl)benzyl)oxy)(1-methyl-1H-imidazol-5-yl)methyl)benzonitrile], the inhibition at 0.1 µM was 92%.
For the molecule `Cn1cncc1C(OCc1ccc(Cl)cc1-c1cccc(N)c1)c1ccc(C#N)cc1` (stereo not shown) [Example 13, 4-(((3′-amino-5-chloro(1,1′-biphenyl)-2-yl)methoxy)(1-methyl-1H-imidazol-5-yl)methyl)benzonitrile], testing at 0.1 µM gave an inhibition of 84%.
`Cn1cncc1C(OCc1ccc(Cl)cc1-c1cccc(C#N)c1)c1ccc(C#N)cc1` (stereo not shown) [Example 14, 3′-chloro-6′-(((4-cyanophenyl)(1-methyl-1H-imidazol-5-yl)methoxy)methyl)(1,1′-biphenyl)-3-carbonitrile] gave an inhibition at 0.1 µM of 96%.
The molecule `CC(=O)c1ccccc1-c1cc(Cl)ccc1COC(c1ccc(C#N)cc1)c1cncn1C` (stereo not shown) [Example 15, 4-(((2′-acetyl-5-chloro(1,1′-biphenyl)-2-yl)methoxy)(1-methyl-1H-imidazol-5-yl)methyl)benzonitrile] registered an inhibition at 0.1 µM of 82%.
Consider `CC(=O)c1ccc(-c2cc(Cl)ccc2COC(c2ccc(C#N)cc2)c2cncn2C)cc1` (stereo not shown) [Example 16, 4-(((4′-acetyl-5-chloro(1,1′-biphenyl)-2-yl)methoxy)(1-methyl-1H-imidazol-5-yl)methyl)benzonitrile], for which the inhibition at 0.1 µM is above 83%.
Regarding `Cc1ccc(-c2cc(Cl)ccc2COC(c2ccc(C#N)cc2)c2cncn2C)cc1C` (stereo not shown) [Example 17, 4-(((5-chloro-3′,4′-dimethyl(1,1′-biphenyl)-2-yl)methoxy)(1-methyl-1H-imidazol-5-yl)methyl)benzonitrile], the inhibition at 0.1 µM is above 85%.
The molecule `Cn1cncc1C(OCc1ccc(Cl)cc1-c1ccc(C(C)(C)C)cc1)c1ccc(C#N)cc1` (stereo not shown) [Example 18, 4-(((4′-tert-butyl-5-chloro(1,1′-biphenyl)-2-yl)methoxy)(1-methyl-1H-imidazol-5-yl)methyl)benzonitrile] showed an inhibition at 0.1 µM of 97%.
Same read-out and setting: under `CCOc1cccc(-c2cc(Cl)ccc2COC(c2ccc(C#N)cc2)c2cncn2C)c1` (stereo not shown) [Example 19, 4-(((5-chloro-3′-ethoxy(1,1′-biphenyl)-2-yl)methoxy)(1-methyl-1H-imidazol-5-yl)methyl)benzonitrile] stands above 95%; under `COc1ccc(OC)c(-c2cc(Cl)ccc2COC(c2ccc(C#N)cc2)c2cncn2C)c1` (stereo not shown) [Example 20, 4-(((5-chloro-2′,5′-dimethoxy(1,1′-biphenyl)-2-yl)methoxy)(1-methyl-1H-imidazol-5-yl)methyl)benzonitrile], 94%.
For `COc1ccc(-c2cc(Cl)ccc2COC(c2ccc(C#N)cc2)c2cncn2C)cc1OC` (stereo not shown) [Example 21, 4-(((5-chloro-3′,4′-dimethoxy(1,1′-biphenyl)-2-yl)methoxy)(1-methyl-1H-imidazol-5-yl)methyl)benzonitrile], the inhibition at 0.1 µM is 91%.
As to `CC(=O)Nc1cccc(-c2cc(Cl)ccc2COC(c2ccc(C#N)cc2)c2cncn2C)c1` (stereo not shown) [Example 22, N-(5′-chloro-2′-(((4-cyanophenyl)(1-methyl-1H-imidazol-5-yl)methoxy)methyl)(1,1′-biphenyl)-3-yl)acetamide], the inhibition at 0.1 µM came to 64%.
In the case of `Cn1cncc1C(OCc1ccc(Cl)cc1-c1ccc2c(c1)OCO2)c1ccc(C#N)cc1` (stereo not shown) [Example 23, 4-(((2-(1,3-benzodioxol-5-yl)-4-chlorobenzyl)oxy)(1-methyl-1H-imidazol-5-yl)methyl)benzonitrile], the inhibition at 0.1 µM was above 92%.
On to `COc1cc(-c2cc(Cl)ccc2COC(c2ccc(C#N)cc2)c2cncn2C)cc(OC)c1OC` (stereo not shown) [Example 24, 4-(((5-chloro-3′,4′,5′-trimethoxy(1,1′-biphenyl)-2-yl)methoxy)(1-methyl-1H-imidazol-5-yl)methyl)benzonitrile], for which 0.1 µM produced 94% inhibition.

Staying with this experiment, now noted: test compound at 10^−9 M (stated in the cell); 3H-farnesyldiphosphate 0.6 μM, H-Ras 5.0 μM, 37° C., 30 minutes.
For `Cn1cncc1[C@](O)(COc1ccc(C#N)cc1-c1ccc(OC(F)(F)F)cc1)c1ccc(C#N)cc1` (single isomer, unassigned) [Example 93], the “% Inhibition at 10^−9 M” value is 90 (10^−9M) %.
